Assay results taken from US4822791A, “Pharmaceutical compositions of-2,2-1,1-[bis-2,2'-(3,1-benzoxazin-4-one)9 ethylenes” (priority 1984, dated 1989).
Like-named read-outs stand apart in the source and are kept apart here.

Experiments:
[1] = tested on: experimental ulcer model (Shay); test: Anti-ulcer activity in experimental ulcer model (Shay); type: in vivo, Wistar strain male rats
Method in brief: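 Wistar male rats, 8 weeks old, 5 per group, fasted 48 h, pylorus ligated under ether (Shay method); compound in 0.5% CMC/0.1% Tween 80 given id or ip, vehicle to controls. Stomach removed 8 h later; ulcers scored, gastric juice volume, acidity (alkali titration), pepsin (haemoglobin substrate) expressed as % inhibition versus control mean.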

[2] = Acute toxicity LD50 in rats (Test Example 8); conditions: rat, in vivo, po; one week; Probit method; read-out: LD50 value (mg/kg body weight) Rat p.o.
Procedure: ddy-Strain mice (male) and Wistar strain rats were used to obtain LD50 values.
According to the ordinary procedure, suspension or solution of test sample was administered to the animals. From the number of the died animals until one week after the administration, LD50 values were obtained by Probit method.

[3] = tested on: passive cutaneous anaphylaxis (PCA); test: Anti-passive cutaneous anaphylaxis activity (PCA) in rats (Test Example 9); type: in vivo; conditions: Rattus norvegicus, po, 50 mg/kg, 10 animals
Method in brief: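 Antiserum came from Wistar rats sensitized with ovalbumin (aluminium hydroxide plus B. pertussis adjuvant) and bled at day 14. It was diluted 12- and 24-fold and injected into the dorsal skin of naive rats 48 h before challenge.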

In the case of `O=C(Nc1ccccc1C(=O)O)C(=Cc1ccccc1)C(=O)Nc1ccccc1C(=O)O` [Compound 11, 2,2'-[(1,3-dioxo-2-phenylmethylene-1,3-propanediyl)diimino]bisbenzoic acid], the “Inhibition % Gastric Acidity” value ([1]; id 100 mg/kg) is reported as 4.7%, the “Inhibition % secretion amount of gastric juice” value ([1]; id 100 mg/kg) is reported as 0% and the “Inhibition % total pepsin titer” value ([1]; id 100 mg/kg) is reported as 0%. For the same compound, the “Inhibition % Gastric Acidity” value ([1]; id 200 mg/kg) was 16.5%, the “Inhibition % secretion amount of gastric juice” value ([1]; id 200 mg/kg) was 20.1% and the “Inhibition % total pepsin titer” value ([1]; id 200 mg/kg) was 9.1%. For the same compound, the LD50 at 168 h [2] was > 10000 mg/kg, the inhibition in vivo at 50 mg/kg ([3]; read-out: Inhibition, Anti-serum Dilution: × 12) was 20.8% and the inhibition in vivo at 50 mg/kg ([3]; read-out: Inhibition, Anti-serum Dilution: × 24) was 23%.
